pKi: −log10 of the molar value. Where two headings read alike, the source gives them in different places.
Experiments:
[1] = test system: IL-4 induced STAT6 phosphorylation in THP-1 human monocytic cells; assay: Cellular JAK potency assay, THP-1
[2] = molecular target: JAK1 (Homo sapiens (Human), UniProt P23458); assay: LanthaScreen JAK biochemical assay (JAK1); conditions: for Ki: read-out: JAK 1 (pKi) (converted)
[3] = Homo sapiens, THP-1, read-out: THP-1 IL4 pIC50 (converted)
[4] = IL-4 induced STAT6 phosphorylation, THP-1 cells
[5] = THP-1 cells, IL-4 induced STAT6 phosphorylation

Sequence of JAK1 (P23458 whole entry): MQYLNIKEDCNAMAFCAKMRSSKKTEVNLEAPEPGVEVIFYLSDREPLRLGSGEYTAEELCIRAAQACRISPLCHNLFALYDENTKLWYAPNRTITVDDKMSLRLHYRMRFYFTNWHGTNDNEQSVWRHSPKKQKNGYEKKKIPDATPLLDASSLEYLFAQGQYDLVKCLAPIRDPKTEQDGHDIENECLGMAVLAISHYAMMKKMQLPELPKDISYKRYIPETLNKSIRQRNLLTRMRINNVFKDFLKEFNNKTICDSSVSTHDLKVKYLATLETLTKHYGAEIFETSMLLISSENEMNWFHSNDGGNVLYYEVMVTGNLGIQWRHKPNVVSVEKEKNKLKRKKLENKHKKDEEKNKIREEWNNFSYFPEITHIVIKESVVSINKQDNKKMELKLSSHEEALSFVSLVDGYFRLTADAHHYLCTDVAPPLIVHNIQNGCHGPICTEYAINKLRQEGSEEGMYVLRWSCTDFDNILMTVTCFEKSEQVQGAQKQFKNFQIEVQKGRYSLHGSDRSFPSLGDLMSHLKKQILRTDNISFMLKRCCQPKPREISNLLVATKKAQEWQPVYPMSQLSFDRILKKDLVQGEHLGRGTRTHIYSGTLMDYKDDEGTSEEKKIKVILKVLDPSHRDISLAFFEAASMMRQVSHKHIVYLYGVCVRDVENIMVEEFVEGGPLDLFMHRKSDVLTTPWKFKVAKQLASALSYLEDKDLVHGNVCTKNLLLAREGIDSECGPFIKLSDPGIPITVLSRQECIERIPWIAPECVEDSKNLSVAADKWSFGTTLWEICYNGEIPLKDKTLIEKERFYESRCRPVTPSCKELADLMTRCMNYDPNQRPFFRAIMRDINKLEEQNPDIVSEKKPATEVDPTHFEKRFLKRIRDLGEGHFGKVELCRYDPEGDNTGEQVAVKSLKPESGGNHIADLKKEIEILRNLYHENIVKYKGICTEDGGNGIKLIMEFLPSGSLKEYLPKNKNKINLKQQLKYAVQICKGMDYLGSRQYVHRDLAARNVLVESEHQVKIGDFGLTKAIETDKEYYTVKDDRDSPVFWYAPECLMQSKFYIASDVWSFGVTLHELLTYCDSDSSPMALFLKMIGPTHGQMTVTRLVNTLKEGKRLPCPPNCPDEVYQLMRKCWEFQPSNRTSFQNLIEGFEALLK

## Cc1cc(Nc2cc3nc(CN4CCOCC4)ccc3c(N[C@@H]3C[C@H]4CC[C@@H](C3)N4S(C)(=O)=O)n2)n[nH]1 [Example 5-15]
[1]; [3]
  IC50: 31.6 to 200 nM

## Cc1cc(Nc2cc3ncccc3c(N[C@@H]3C[C@H]4CC[C@@H](C3)N4CC(C)C)n2)n[nH]1 [Example 1-13]
[2]
  JAK 1 (pKi): B (B represents a pKi value between 9 and 10 (Ki between 1 nM and 0.1 nM))
[1]; [4]
  THP-1 IL4 pIC50: A (A represents a pEC50 value≥7.5 (EC50≤32 nM))

## COCCOC(=O)N1[C@@H]2CC[C@H]1C[C@H](Nc1nc(Nc3cc(C)[nH]n3)cc3ncccc13)C2 [Example 3-5]
[2]
  JAK 1 (pKi): B (B represents a pKi value between 9 and 10 (Ki between 1 nM and 0.1 nM))
[1]; [4]
  THP-1 IL4 pIC50: B (B represents a pEC50 value between 6.7 and 7.5 (EC50 between 200 nM and 32 nM))

## COc1ccnc2cc(Nc3cc(C)[nH]n3)nc(N[C@@H]3C[C@H]4CC[C@@H](C3)N4CCF)c12 [Example 7-7]
[1]; [5]
  THP-1 IL4 pIC50: B (B represents a pEC50 value between 6.7 and 7.5 (EC50 between 200 nM and 32 nM))

## Cc1cc(Nc2cc3ncc(S(C)(=O)=O)cc3c(N[C@@H]3C[C@H]4CC[C@@H](C3)N4CCCF)n2)n[nH]1 [Example 6-55]
[1]; [5]
  THP-1 IL4 pIC50: C (C represents a pEC50 value<6.7 (EC50>200 nM))

## Cc1cc(Nc2cc3ncccc3c(N[C@@H]3C[C@H]4CCC[C@@H](C3)N4S(C)(=O)=O)n2)n[nH]1 [Example 4-16]
[1]; [4]
  THP-1 IL4 pIC50: A (A represents a pEC50 value≥7.5 (EC50≤32 nM))

## Cc1cc(Nc2cc3ncccc3c(N[C@@H]3C[C@H]4CCC[C@@H](C3)N4[C@H]3CCOC3=O)n2)n[nH]1 [Example 1-51]
[1]; [4]
  THP-1 IL4 pIC50: B (B represents a pEC50 value between 6.7 and 7.5 (EC50 between 200 nM and 32 nM))

## C=CCS(=O)(=O)N1[C@@H]2CCC[C@H]1C[C@H](Nc1nc(Nc3cc(C)[nH]n3)cc3ncccc13)C2 [Example 4-22]
[1]; [4]
  THP-1 IL4 pIC50: A (A represents a pEC50 value≥7.5 (EC50≤32 nM))

## COC(=O)CCCN1[C@@H]2CCC[C@H]1C[C@H](Nc1nc(Nc3cc(C)[nH]n3)cc3ncccc13)C2 [Example 1-34]
[2]
  JAK 1 (pKi): B (B represents a pKi value between 9 and 10 (Ki between 1 nM and 0.1 nM))
[1]; [4]
  THP-1 IL4 pIC50: C (C represents a pEC50 value<6.7 (EC50>200 nM))

## C=CCOC(=O)N1[C@@H]2CCC[C@H]1C[C@H](Nc1nc(Nc3cc(C)[nH]n3)cc3nc(CN4CCOCC4)ccc13)C2 [Example 5-25]
[1]; [4]
  THP-1 IL4 pIC50: B (B represents a pEC50 value between 6.7 and 7.5 (EC50 between 200 nM and 32 nM))

## Cc1cc(Nc2cc3nc(CN4CCOCC4)ccc3c(N[C@@H]3C[C@H]4CC[C@@H](C3)N4CC(C)C)n2)n[nH]1 [Example 5-19]
[2]
  JAK 1 (pKi): B (B represents a pKi value between 9 and 10 (Ki between 1 nM and 0.1 nM))
[1]; [4]
  THP-1 IL4 pIC50: B (B represents a pEC50 value between 6.7 and 7.5 (EC50 between 200 nM and 32 nM))

## Cc1cc(Nc2cc3ncc(S(C)(=O)=O)cc3c(N[C@@H]3C[C@H]4CC[C@@H](C3)N4[C@@H]3CCOC3=O)n2)n[nH]1 [Example 6-57]
[1]; [5]
  THP-1 IL4 pIC50: C (C represents a pEC50 value<6.7 (EC50>200 nM))

## COc1ccnc2cc(Nc3cc(C)[nH]n3)nc(N[C@@H]3C[C@H]4CC[C@@H](C3)N4C(=O)OCC(C)C)c12 [Example 7-1]
[2]
  JAK 1 (pKi): B (B represents a pKi value between 9 and 10 (Ki between 1 nM and 0.1 nM))
[1]; [5]
  THP-1 IL4 pIC50: B (B represents a pEC50 value between 6.7 and 7.5 (EC50 between 200 nM and 32 nM))

## Cc1cc(Nc2cc3ncccc3c(N[C@@H]3C[C@H]4CC[C@@H](C3)N4C(=O)OCC(C)C)n2)n[nH]1 [Example 3-3]
[2]
  JAK 1 (pKi): B (B represents a pKi value between 9 and 10 (Ki between 1 nM and 0.1 nM))
[1]; [4]
  THP-1 IL4 pIC50: A (A represents a pEC50 value≥7.5 (EC50≤32 nM))

## CCC1(S(=O)(=O)N2[C@@H]3CC[C@H]2C[C@H](Nc2nc(Nc4cc(C)[nH]n4)cc4nc(CN5CCC(F)(F)CC5)ccc24)C3)CC1 [Example 5-32]
[1]; [3]
  IC50: 31.6 to 200 nM

## Cc1cc(Nc2cc3ncccc3c(N[C@@H]3C[C@H]4CCC[C@@H](C3)N4CC(F)(F)F)n2)n[nH]1 [Example 1-45]
[1]; [4]
  THP-1 IL4 pIC50: B (B represents a pEC50 value between 6.7 and 7.5 (EC50 between 200 nM and 32 nM))

## Cc1cc(Nc2cc3ncccc3c(N[C@@H]3C[C@H]4CC[C@@H](C3)N4S(=O)(=O)C3(C)CC3)n2)n[nH]1 [Example 4-8]
[2]
  Ki: […]
[1]; [3]
  IC50: < 31.6 nM

## COC(=O)CN1[C@@H]2CC[C@H]1C[C@H](Nc1nc(Nc3cc(C)[nH]n3)cc3ncccc13)C2 [Example 1-1]
[1]; [4]
  THP-1 IL4 pIC50: C (C represents a pEC50 value<6.7 (EC50>200 nM))

## Cc1cc(Nc2cc3ncccc3c(N[C@@H]3C[C@H]4CCC[C@@H](C3)N4Cc3cccc(O)c3)n2)n[nH]1 [Example 1-49]
[1]; [4]
  THP-1 IL4 pIC50: A (A represents a pEC50 value≥7.5 (EC50≤32 nM))

## COCC1CCCN1S(=O)(=O)N1[C@@H]2CC[C@H]1C[C@H](Nc1nc(Nc3cc(C)[nH]n3)cc3ncccc13)C2 (stereo partly drawn) [Example 4-12]
[2]
  pKi: 9.00 to 10.00
[1]; [3]
  IC50: 31.6 to 200 nM

## COC(=O)c1cnc2cc(Nc3cc(C)[nH]n3)nc(N[C@@H]3C[C@H]4CC[C@@H](C3)N4CCCF)c2c1 [Example 6-44]
[1]; [5]
  THP-1 IL4 pIC50: B (B represents a pEC50 value between 6.7 and 7.5 (EC50 between 200 nM and 32 nM))

## Cc1cc(Nc2cc3ncccc3c(N[C@@H]3C[C@H]4CC[C@@H](C3)N4CC(=O)N[C@H]3CCOC3=O)n2)n[nH]1 [Example 1-12]
[1]; [4]
  THP-1 IL4 pIC50: C (C represents a pEC50 value<6.7 (EC50>200 nM))

## CCOCC(=O)N1[C@@H]2CC[C@H]1C[C@H](Nc1nc(Nc3cc(C)[nH]n3)cc3ncccc13)C2 [Example 2-4]
[1]; [4]
  THP-1 IL4 pIC50: C (C represents a pEC50 value<6.7 (EC50>200 nM))

## Cc1cc(Nc2cc3ncccc3c(N[C@@H]3C[C@H]4CC[C@@H](C3)N4CC3CCC(=O)O3)n2)n[nH]1 (stereo partly drawn) [Example 1-29]
[1]; [4]
  THP-1 IL4 pIC50: C (C represents a pEC50 value<6.7 (EC50>200 nM))

## COC(=O)C1(C(=O)N2[C@@H]3CC[C@H]2C[C@H](Nc2nc(Nc4cc(C)[nH]n4)cc4ncccc24)C3)CC1 [Example 2-9]
[1]; [3]
  IC50: > 200 nM

## COc1ccnc2cc(Nc3cc(C)[nH]n3)nc(N[C@@H]3C[C@H]4CC[C@@H](C3)N4C(=O)CN(C)C)c12 [Example 7-3]
[1]; [5]
  THP-1 IL4 pIC50: C (C represents a pEC50 value<6.7 (EC50>200 nM))

## COc1ccc2c(N[C@@H]3C[C@H]4CC[C@@H](C3)N4CCCF)nc(Nc3cc(C)[nH]n3)cc2n1 [Example 5-5]
[2]
  JAK 1 (pKi): B (B represents a pKi value between 9 and 10 (Ki between 1 nM and 0.1 nM))
[1]; [4]
  THP-1 IL4 pIC50: B (B represents a pEC50 value between 6.7 and 7.5 (EC50 between 200 nM and 32 nM))

## Cc1cc(Nc2cc3ncccc3c(N[C@@H]3C[C@H]4CC[C@@H](C3)N4CC(=O)N[C@@H]3CCOC3=O)n2)n[nH]1 [Example 1-11]
[1]; [4]
  THP-1 IL4 pIC50: C (C represents a pEC50 value<6.7 (EC50>200 nM))

## COC(=O)CCN1[C@@H]2CC[C@H]1C[C@H](Nc1nc(Nc3cc(C)[nH]n3)cc3ncccc13)C2 [Example 1-2]
[1]; [4]
  THP-1 IL4 pIC50: C (C represents a pEC50 value<6.7 (EC50>200 nM))

## COc1cnc2cc(Nc3cc(C)[nH]n3)nc(N[C@@H]3C[C@H]4CCC[C@@H](C3)N4CCCF)c2c1 [Example 6-26]
[2]
  JAK 1 (pKi): B (B represents a pKi value between 9 and 10 (Ki between 1 nM and 0.1 nM))
[1]; [5]
  THP-1 IL4 pIC50: B (B represents a pEC50 value between 6.7 and 7.5 (EC50 between 200 nM and 32 nM))

## COC(=O)c1cnc2cc(Nc3cc(C)[nH]n3)nc(N[C@@H]3C[C@H]4CC[C@@H](C3)N4C(=O)CN(C)C)c2c1 [Example 6-39]
[2]
  JAK 1 (pKi): B (B represents a pKi value between 9 and 10 (Ki between 1 nM and 0.1 nM))
[1]; [5]
  THP-1 IL4 pIC50: C (C represents a pEC50 value<6.7 (EC50>200 nM))

## Cc1cc(Nc2cc3ncccc3c(N[C@@H]3C[C@H]4CC[C@@H](C3)N4S(=O)(=O)c3ccccn3)n2)n[nH]1 [Example 4-14]
[1]; [3]
  IC50: 31.6 to 200 nM

## Cc1cc(Nc2cc3ncccc3c(N[C@@H]3C[C@H]4CC[C@@H](C3)N4Cc3cccc(O)c3)n2)n[nH]1 [Example 1-19]
[1]; [3]
  IC50: 31.6 to 200 nM

## COCCS(=O)(=O)N1[C@@H]2CCC[C@H]1C[C@H](Nc1nc(Nc3cc(C)[nH]n3)cc3nc(CN4CCOCC4)ccc13)C2 [Example 5-24]
[1]; [4]
  THP-1 IL4 pIC50: B (B represents a pEC50 value between 6.7 and 7.5 (EC50 between 200 nM and 32 nM))

## Cc1cc(Nc2cc3nc(CN4CCN(C)CC4)ccc3c(N[C@@H]3C[C@H]4CC[C@@H](C3)N4CC(F)(F)F)n2)n[nH]1 [Example 5-35]
[1]; [3]
  IC50: < 31.6 nM

## Cc1cc(Nc2cc3nc(CN4CCC(F)(F)CC4)ccc3c(N[C@@H]3C[C@H]4CC[C@@H](C3)N4CC(F)(F)F)n2)n[nH]1 [Example 5-33]
[1]; [3]
  IC50: 31.6 to 200 nM

## Cc1cc(Nc2cc3ncccc3c(N[C@@H]3C[C@H]4CCC[C@@H](C3)N4[C@@H]3CCOC3=O)n2)n[nH]1 [Example 1-52]
[1]; [4]
  THP-1 IL4 pIC50: B (B represents a pEC50 value between 6.7 and 7.5 (EC50 between 200 nM and 32 nM))

## Cc1cc(Nc2cc3ncccc3c(N[C@@H]3C[C@H]4CC[C@@H](C3)N4CCCF)n2)n[nH]1 [Example 1-9]
[2]
  JAK 1 (pKi): B (B represents a pKi value between 9 and 10 (Ki between 1 nM and 0.1 nM))
[1]; [4]
  THP-1 IL4 pIC50: C (C represents a pEC50 value<6.7 (EC50>200 nM))

## Cc1cc(Nc2cc3ncccc3c(N[C@@H]3C[C@H]4CC[C@@H](C3)N4CC3COC(=O)O3)n2)n[nH]1 (stereo partly drawn) [Example 1-30]
[1]; [3]
  IC50: 31.6 to 200 nM

## COC(=O)c1cnc2cc(Nc3cc(C)[nH]n3)nc(N[C@@H]3C[C@H]4CC[C@@H](C3)N4C3CCCOC3=O)c2c1 (stereo partly drawn) [Example 16, Methyl 7-((5-methyl-1H-pyrazol-3-yl)amino)-5-(((1R,3s,5S)-8-(2-oxotetrahydro-2H-pyran-3-yl)-8-azabicyclo[3.2.1]octan-3-yl)amino)-1,6-naphthyridine-3-carboxylate]
[2]
  Ki: 0.1 to 1 nM
[1]; [3]
  IC50: 31.6 to 200 nM

## Cc1cc(Nc2cc3nc(CN4CCOCC4)ccc3c(N[C@@H]3C[C@H]4CCC[C@@H](C3)N4S(=O)(=O)N3CCC3)n2)n[nH]1 [Example 5-28]
[1]; [4]
  THP-1 IL4 pIC50: B (B represents a pEC50 value between 6.7 and 7.5 (EC50 between 200 nM and 32 nM))

## Cc1cc(Nc2cc3ncccc3c(N[C@@H]3C[C@H]4CCC[C@@H](C3)N4CC(=O)OC(C)C)n2)n[nH]1 [Example 1-35]
[1]; [4]
  THP-1 IL4 pIC50: A (A represents a pEC50 value≥7.5 (EC50≤32 nM))

## Cc1cc(Nc2cc3ncc(S(C)(=O)=O)cc3c(N[C@@H]3C[C@H]4CC[C@@H](C3)N4[C@H]3CCOC3=O)n2)n[nH]1 [Example 6-58]
[1]; [5]
  THP-1 IL4 pIC50: C (C represents a pEC50 value<6.7 (EC50>200 nM))

## COC(=O)CCCN1[C@@H]2CC[C@H]1C[C@H](Nc1nc(Nc3cc(C)[nH]n3)cc3ncccc13)C2 [Example 1-3]
[1]; [4]
  THP-1 IL4 pIC50: C (C represents a pEC50 value<6.7 (EC50>200 nM))
